Tested on: 292921-168-R-J2-PDC complex spheroid growth
Experiment: Anticancer human tumor 292921-168-R-J2-PDC patient-derived pancreatic carcinoma cell line growth inhibition [AhR]
Details: for IC50: curve of first compound; for viability, T/C: stronger effect = lower value
From the text: Multicellular complex tumor spheroid response to aryl hydrocarbon receptor antagonists in combination with a variety of drugs and investigational agents in selected tumor cell lines
The current study was undertaken to assess response to aryl hydrocarbon receptor antagonists in combination with standard-of-care drugs and investigational agents in solid tumor complex spheroid models. Complex spheroids include a stromal component modeled by human endothelial cells (HUVEC) and fibroblasts modeled by human mesenchymal stem cells (MSCs). The concentration ranges selected for each drug and investigational agent were based upon clinically achievable concentrations if the clinical Cmax of the agent was known.
Compounds. The drugs and investigational agents: BAY 2416964 (NSC825713), GNF351 (NSC835774), CH-223191 (NSC835775), CPI-455 (NSC825282), aza-TdCyd (NSC777586), decitabine (NSC127716), belinostat (NSC758774), entinostat (NSC756642), pevonedistat (NSC761192), tazemetostat (NSC777109), talazoparib (NSC765396), olaparib (NSC753686), selinexor (NSC780203), nedisertib (M3814, NSC802822), bortezomib (NSC756655), venetoclax (NSC766270), doxorubicin (NSC123127), elimusertib (BAY189344, NSC800525), ceralasertib (AZD6738, NSC777638), TAK-243 (NSC785004), alisertib (NSC759677), etoposide (NSC141540), topotecan (NSC609699), eribulin (NSC707389), gemcitabine (NSC613327), carboplatin (NSC241240), cisplatin (NSC119875), and SN-38 (NSC673596) were obtained from the National Cancer Institute (NCI) Developmental Therapeutics Program Chemical Repository (32). The FDA-approved anticancer drug set is available from the Developmental Therapeutics Program at https://dtp.cancer.gov/organization/dscb/obtaining/available plates.htm. […] The stock solutions were prepared in dimethyl sulfoxide (DMSO, Sigma-Aldrich, St. Louis, MO, cat. D2650), except for the platinum compounds which were prepared in saline (Quality Biological, Gaithersburg, MD, cat. 114-055-101), at 800-fold the tested concentration and stored at -70 degrees C prior to their use. All drugs and investigational agents were tested over a range starting from a high concentration at or near the clinical Cmax and decreasing in half-log increments. If the clinical Cmax for an agent had not been determined, the highest concentration tested was 10 microM (Table 1).
Cell Culture. All cells were maintained in an incubator at 37 degrees C and 5% CO2 with 95% humidity. The PDC lines were cultured according to standard operating procedures established by the NCI PDMR (https://pdmr.cancer.gov). Briefly, all PDCs were thawed and cultured in Matrigel-coated flasks prepared with a working solution of 1X Ham's F-12 nutrient mix, without supplementation (Invitrogen, Waltham, MA, cat. 11765054), 100 U/mL penicillin-streptomycin (Invitrogen, cat. 15140122), and 2.5% Matrigel (Corning Inc., Corning, NY, cat. 354248) for the first three passages. All PDCs were cultured in complete DMEM/F-12 media containing advanced DMEM/F-12 (Invitrogen, cat. 12634028), 4.9% defined fetal bovine serum, heat inactivated (HyClone Laboratories Inc., Logan, UT, cat. SH30070.03HI), 389 ng/mL hydrocortisone (Sigma-Aldrich, cat. H4001), 9.7 ng/mL human EGF recombinant protein (Invitrogen, cat. PHG0313), 23.4 microg/mL adenine (Sigma-Aldrich, cat. A2786), 97.3 U/mL penicillin-streptomycin (Invitrogen, cat. 15140122), 1.9 mM L-glutamine (Invitrogen, cat. 25030081), and 9.7 microM Y-27632 dihydrochloride (Tocris Bioscience, Bristol, United Kingdom, cat. 1254). The PDCs were cultured in complete DMEM/F12 media without 10 microM Y-27632 dihydrochloride for at least two passages prior to the screen. The established cell lines NCI-H1341 and […] were cultured in DMEM/F-12, HEPES (Invitrogen, cat. 11330032), 5% defined fetal bovine serum (HyClone Laboratories Inc., cat. SH30070.03), ITS premix universal culture supplement [insulin (5 microg/mL), transferrin (5 microg/mL), and selenious acid (5 ng/mL)] […]

[1] = second compound 0.1 µM, first compound 0.0316 µM
[2] = second compound 0.1 µM, first compound 0.1 µM
[3] = second compound 0.1 µM, first compound 0.316 µM
[4] = second compound 0.1 µM, first compound 1 µM
[5] = second compound 0.1 µM, first compound 3.16 µM
[6] = second compound 0.1 µM, first compound 10 µM
[7] = second compound 0.316 µM, first compound 0.0316 µM
[8] = second compound 0.316 µM, first compound 0.1 µM
[9] = second compound 0.316 µM, first compound 0.316 µM
[10] = second compound 0.316 µM, first compound 1 µM
[11] = second compound 0.316 µM, first compound 3.16 µM
[12] = second compound 0.316 µM, first compound 10 µM
[13] = second compound 1 µM, first compound 0.0316 µM
[14] = second compound 1 µM, first compound 0.1 µM
[15] = second compound 1 µM, first compound 0.316 µM
[16] = second compound 1 µM, first compound 1 µM
[17] = second compound 1 µM, first compound 3.16 µM
[18] = second compound 1 µM, first compound 10 µM
[19] = second compound 3.16 µM, first compound 0.0316 µM
[20] = second compound 3.16 µM, first compound 0.1 µM
[21] = second compound 3.16 µM, first compound 0.316 µM
[22] = second compound 3.16 µM, first compound 1 µM
[23] = second compound 3.16 µM, first compound 3.16 µM
[24] = second compound 3.16 µM, first compound 10 µM
[25] = second compound 10 µM, first compound 0.0316 µM
[26] = second compound 10 µM, first compound 0.1 µM
[27] = second compound 10 µM, first compound 0.316 µM
[28] = second compound 10 µM, first compound 1 µM
[29] = second compound 10 µM, first compound 3.16 µM
[30] = second compound 10 µM, first compound 10 µM
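Also: spheroids exposed to compounds for seven days after three days of growth.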

Q: What does the source list for `COc1cccc2c1C(=O)c1c(O)c3c(c(O)c1C2=O)CC(O)(C(=O)CO)CC3OC1CC(N)C(O)C(C)O1` (stereo not given) + Cc1ccccc1N=Nc1ccc(NC(=O)c2ccnn2C)c(C)c1?
A: IC50 (second compound 0.1 µM): < 31.6 nM; IC50 (second compound 0.316 µM): < 31.6 nM; IC50 (second compound 1 µM): < 31.6 nM; IC50 (second compound 3.16 µM): < 31.6 nM; IC50 (second compound 10 µM): < 31.6 nM; viability, T/C [1]: 24.3%; viability, T/C [2]: 17%; viability, T/C [3]: 5.13%; viability, T/C [4]: 0.17%; viability, T/C [5]: 0.69%; viability, T/C [6]: 1.91%; viability, T/C [7]: 20.1%; viability, T/C [8]: 15.5%; viability, T/C [9]: 4.33%; viability, T/C [10]: 0.12%; viability, T/C [11]: 0.59%; viability, T/C [12]: 2.35%; viability, T/C [13]: 23.3%; viability, T/C [14]: 16.1%; viability, T/C [15]: 2.12%; viability, T/C [16]: 3.61%; viability, T/C [17]: 0.65%; viability, T/C [18]: 5.48%; viability, T/C [19]: 19%; viability, T/C [20]: 13.9%; viability, T/C [21]: 1.59%; viability, T/C [22]: 5.2%; viability, T/C [23]: 0.73%; viability, T/C [24]: 1.88%; viability, T/C [25]: 17.2%; viability, T/C [26]: 12.1%; viability, T/C [27]: 0.42%; viability, T/C [28]: 0.36%; viability, T/C [29]: 1.18%; viability, T/C [30]: 4.37%

Q: Which IC50 (second compound 0.1 µM) does the source give for `CC1COCCN1c1cc(C2(S(C)(=N)=O)CC2)nc(-c2ccnc3[nH]ccc23)n1` (stereo not given) + Cc1cncc(-c2nc(NCCc3c[nH]c4ccccc34)c3ncn(C(C)C)c3n2)c1 here?
A: 3610 nM

Q: And the IC50 (second compound 0.316 µM)?
A: 3000 nM

Q: What about the IC50 (second compound 1 µM) of the same compound?
A: 2580 nM

Q: What about the IC50 (second compound 3.16 µM) of the same compound?
A: 1940 nM

Q: And the IC50 (second compound 10 µM)?
A: 31.6 nM

Q: And the viability, T/C [1]?
A: 89.8%

Q: And the viability, T/C [2]?
A: 87.6%

Q: And the viability, T/C [3]?
A: 95.8%

Q: And the viability, T/C [4]?
A: 76.9%

Q: What about the viability, T/C [5] of the same compound?
A: 54.2%

Q: What about the viability, T/C [6] of the same compound?
A: 24.7%

Q: And the viability, T/C [7]?
A: 86.5%

Q: And the viability, T/C [8]?
A: 80.5%

Q: And the viability, T/C [9]?
A: 73.3%

Q: What about the viability, T/C [10] of the same compound?
A: 80.2%

Q: And the viability, T/C [11]?
A: 48.6%

Q: And the viability, T/C [12]?
A: 24.7%

Q: And the viability, T/C [13]?
A: 77.2%

Q: What about the viability, T/C [14] of the same compound?
A: 80.6%

Q: And the viability, T/C [15]?
A: 88.4%

Q: What about the viability, T/C [16] of the same compound?
A: 70%

Q: And the viability, T/C [17]?
A: 45.9%

Q: And the viability, T/C [18]?
A: 24.5%

Q: What about the viability, T/C [19] of the same compound?
A: 63.3%

Q: And the viability, T/C [20]?
A: 63.3%

Q: And the viability, T/C [21]?
A: 66.9%

Q: What about the viability, T/C [22] of the same compound?
A: 59.6%

Q: What about the viability, T/C [23] of the same compound?
A: 42.6%

Q: And the viability, T/C [24]?
A: 25.4%

Q: And the viability, T/C [25]?
A: 48.6%

Q: And the viability, T/C [26]?
A: 45.9%

Q: And the viability, T/C [27]?
A: 50%

Q: And the viability, T/C [28]?
A: 50.4%

Q: What about the viability, T/C [29] of the same compound?
A: 38.8%

Q: And the viability, T/C [30]?
A: 29.4%

Q: With `Nc1ncn(C2CC(O)C(CO)S2)c(=O)n1` (stereo not given) + Cc1cncc(-c2nc(NCCc3c[nH]c4ccccc34)c3ncn(C(C)C)c3n2)c1 as the compound, how does the IC50 (second compound 0.1 µM) read?
A: > 300 nM

Q: And the IC50 (second compound 0.316 µM)?
A: > 300 nM

Q: What about the IC50 (second compound 1 µM) of the same compound?
A: > 300 nM

Q: What about the IC50 (second compound 3.16 µM) of the same compound?
A: > 300 nM

Q: What about the IC50 (second compound 10 µM) of the same compound?
A: 91.3 nM

Q: What about the viability, T/C (second compound 0.1 µM, first compound 0.000949 µM) of the same compound?
A: 94.8%

Q: And the viability, T/C (second compound 0.1 µM, first compound 0.003 µM)?
A: 92.2%

Q: What about the viability, T/C (second compound 0.1 µM, first compound 0.00949 µM) of the same compound?
A: 91.3%

Q: And the viability, T/C (second compound 0.1 µM, first compound 0.03 µM)?
A: 92.6%

Q: And the viability, T/C (second compound 0.1 µM, first compound 0.0949 µM)?
A: 87%

Q: And the viability, T/C (second compound 0.1 µM, first compound 0.3 µM)?
A: 89.9%

Q: What about the viability, T/C (second compound 0.316 µM, first compound 0.000949 µM) of the same compound?
A: 91%

Q: What about the viability, T/C (second compound 0.316 µM, first compound 0.003 µM) of the same compound?
A: 85.9%

Q: What about the viability, T/C (second compound 0.316 µM, first compound 0.00949 µM) of the same compound?
A: 88.2%

Q: And the viability, T/C (second compound 0.316 µM, first compound 0.03 µM)?
A: 98.2%

Q: And the viability, T/C (second compound 0.316 µM, first compound 0.0949 µM)?
A: 88.2%

Q: What about the viability, T/C (second compound 0.316 µM, first compound 0.3 µM) of the same compound?
A: 92.7%

Q: What about the viability, T/C (second compound 1 µM, first compound 0.000949 µM) of the same compound?
A: 71.9%

Q: What about the viability, T/C (second compound 1 µM, first compound 0.003 µM) of the same compound?
A: 74%

Q: And the viability, T/C (second compound 1 µM, first compound 0.00949 µM)?
A: 69.7%

Q: And the viability, T/C (second compound 1 µM, first compound 0.03 µM)?
A: 75.1%

Q: What about the viability, T/C (second compound 1 µM, first compound 0.0949 µM) of the same compound?
A: 82.4%

Q: And the viability, T/C (second compound 1 µM, first compound 0.3 µM)?
A: 82.9%

Q: What about the viability, T/C (second compound 3.16 µM, first compound 0.000949 µM) of the same compound?
A: 52.2%

Q: What about the viability, T/C (second compound 3.16 µM, first compound 0.003 µM) of the same compound?
A: 55.5%

Q: And the viability, T/C (second compound 3.16 µM, first compound 0.00949 µM)?
A: 59.5%

Q: What about the viability, T/C (second compound 3.16 µM, first compound 0.03 µM) of the same compound?
A: 47.3%

Q: What about the viability, T/C (second compound 3.16 µM, first compound 0.0949 µM) of the same compound?
A: 50%

Q: What about the viability, T/C (second compound 3.16 µM, first compound 0.3 µM) of the same compound?
A: 57.8%

Q: What about the viability, T/C (second compound 10 µM, first compound 0.000949 µM) of the same compound?
A: 50.1%

Q: What about the viability, T/C (second compound 10 µM, first compound 0.003 µM) of the same compound?
A: 48.8%

Q: And the viability, T/C (second compound 10 µM, first compound 0.00949 µM)?
A: 54.6%

Q: And the viability, T/C (second compound 10 µM, first compound 0.03 µM)?
A: 50%

Q: What about the viability, T/C (second compound 10 µM, first compound 0.0949 µM) of the same compound?
A: 50.2%

Q: And the viability, T/C (second compound 10 µM, first compound 0.3 µM)?
A: 48.4%

Source: PubChem BioAssay AID1918994 (Molecular Pharmacology Branch, DTP, NCI, 2023)
